Results from ChEMBL document CHEMBL4811259, “Novel 1-(prop-2-yn-1-ylamino)-2,3-dihydro-1H-indene-4-thiol derivatives as potent selective human monoamine oxidase B inhibitors: Design, SAR development, and biological evaluation” (Bioorg Med Chem Lett, 2021).
Activity calls are given as the source filed them. The calls are words filed in the database; no cut-off is given here.

Experiments:
[1] = target: T1, Amine oxidase [flavin-containing] B (Homo sapiens, UniProt P27338); experiment: Inhibition of human MAO-B
T1 sequence (P27338 whole entry): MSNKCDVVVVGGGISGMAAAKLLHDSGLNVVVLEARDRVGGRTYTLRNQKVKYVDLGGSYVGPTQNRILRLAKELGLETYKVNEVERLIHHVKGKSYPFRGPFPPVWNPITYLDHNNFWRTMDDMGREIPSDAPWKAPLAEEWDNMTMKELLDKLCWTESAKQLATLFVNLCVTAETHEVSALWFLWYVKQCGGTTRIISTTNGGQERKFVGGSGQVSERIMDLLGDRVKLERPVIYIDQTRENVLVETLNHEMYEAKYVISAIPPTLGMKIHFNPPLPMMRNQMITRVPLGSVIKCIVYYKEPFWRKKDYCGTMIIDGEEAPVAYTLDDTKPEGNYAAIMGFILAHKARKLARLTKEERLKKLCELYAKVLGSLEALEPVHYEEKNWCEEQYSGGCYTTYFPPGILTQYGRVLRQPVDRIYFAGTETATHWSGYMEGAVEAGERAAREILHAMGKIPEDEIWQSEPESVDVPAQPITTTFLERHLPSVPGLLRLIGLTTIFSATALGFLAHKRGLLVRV

[2] = Selectivity index, ratio of IC50 for human MAO-A to IC50 for human MAO-B
SH-SY5Y [3] = experiment: Cytotoxicity against human SH-SY5Y cells at 5 to 50 uM after 24 hrs by MTT assay; type: cell-based; conditions: dose 5-50 µM
BV-2 [4] = experiment: Cytotoxicity against C57/BL6 mouse BV-2 cells at 5 to 50 uM after 24 hrs by MTT assay; type: cell-based; conditions: bv-2, 24 h, dose 5-50 µM
BV-2 [5] = experiment: Cytotoxicity against C57/BL6 mouse BV-2 cells assessed as induction of cell death at 50 uM after 24 hrs by MTT assay relative to control; type: cell-based; conditions: bv-2, 24 h
SH-SY5Y [6] = experiment: Cytotoxicity against human SH-SY5Y cells assessed as induction of cell death at 50 uM after 24 hrs by MTT assay relative to control; type: cell-based
BV-2 [7] = experiment: Neuroprotective activity against LPS-induced oxidative stress in C57/BL6 mouse BV-2 cells assessed as decrease in ROS level at < 20 uM after 24 hrs by DCFH-DA dye based fluorescence assay; type: functional, cell-based; conditions: dose microM <20, time 24.0 hrs
SH-SY5Y [8] = experiment: Neuroprotective activity against LPS-induced oxidative stress in human SH-SY5Y cells assessed as decrease in ROS level at < 20 uM after 24 hrs by DCFH-DA dye based fluorescence assay; type: functional, cell-based; conditions: dose microM <20, time 24.0 hrs
Mus musculus [9] = experiment: Neuroprotective activity against MPTP-induced C57BL/6J mouse model of Parkinson's disease assessed as increase in average speed at 0.2 mg/kg, ip pretreated for 7 consecutive days followed by MPTP challenge and further treated with compound until day 14 by open field test; type: functional, organism-based; conditions: time 14.0 day
Mus musculus [10] = experiment: Neuroprotective activity against MPTP-induced C57BL/6J mouse model of Parkinson's disease assessed as increase in total distance at 0.2 mg/kg, ip pretreated for 7 consecutive days followed by MPTP challenge and further treated with compound until day 14 by open field test; type: functional, organism-based; conditions: time 14.0 day
Mus musculus [11] = experiment: Neuroprotective activity against MPTP-induced C57BL/6J mouse model of Parkinson's disease assessed as decrease in immobility time at 0.2 mg/kg, ip pretreated for 7 consecutive days followed by MPTP challenge and further treated with compound until day 14 by open field test; type: functional, organism-based; conditions: time 14.0 day
[12] = target: T1, Amine oxidase [flavin-containing] B; experiment: Inhibition of human MAO-A; type: ADME

SMILES | IC50 [1] | Ratio IC50 [2] | further results
C#CCNC1CCc2c(SCc3cccc(F)c3)cccc21 (stereo unspecified) | 1.48 µM | 7.79 | 
C#CCNC1CCc2c(SCc3cccc(Cl)c3)cccc21 (stereo unspecified) | 23.3 µM | 0.047 | 
C#CCNC1CCc2c(SCc3ccc(C(F)(F)F)cc3)cccc21 (stereo unspecified) | 9.68 µM | 0.096 | 
C#CCNC1CCc2c(SCc3ccc(F)c(F)c3)cccc21 (stereo unspecified) | 2.65 µM | 0.99 | 
C#CCNC1CCc2c(SCc3ccc(Cl)c(Cl)c3)cccc21 (stereo unspecified) | 2.84 µM | 0.026 | 
C#CCNC1CCc2c(SCc3ccc4ccccc4c3)cccc21 (stereo unspecified) | 4.95 µM | 14 | 
C#CCNC1CCc2c(SCc3ccc(Cl)cc3Cl)cccc21 (stereo unspecified) | 3.76 µM | 5.93 | 
C#CCNC1CCc2c(SCc3cccc(C(F)(F)F)c3)cccc21 (stereo unspecified) | 0.0047 µM | 1640 | Activity (SH-SY5Y [3]): Non-Toxic; Activity (BV-2 [4]): Non-Toxic; Activity (BV-2 [5]): 30%; Activity (SH-SY5Y [6]): 30%; Activity (BV-2 [7]): Active; Activity (SH-SY5Y [8]): Active; Activity (Mus musculus [9]): Active; Activity (Mus musculus [10]): Active; Activity (Mus musculus [11]): Active
C#CCNC1CCc2c(SCc3ccc(OC)cc3)cccc21 (stereo unspecified) | 1.9 µM | 2.09 | 
C#CCNC1CCc2c(SCc3ccccc3)cccc21 (stereo unspecified) | 6.4 µM | > 15.6 | IC50 [12]: Not Active
C#CCNC1CCc2c(SCCc3cccc(C(F)(F)F)c3)cccc21 (stereo unspecified) | 3.72 µM | 0.076 | 
C#CCNC1CCc2c(SCc3cccc(OC)c3)cccc21 (stereo unspecified) | 3.19 µM | 0.48 | 
C#CCNC1CCc2c(OCc3cccc(C(F)(F)F)c3)cccc21 (stereo unspecified) | 6.41 µM | 0.84 | 
C#CCNC1CCc2c(SCc3cccc(Br)c3)cccc21 (stereo unspecified) | > 100 µM |  | 
C#CCNC1CCc2c(SCc3ccc(F)cc3F)cccc21 (stereo unspecified) | 2.43 µM | 0.61 | 
C#CCNC1CCc2c(NCc3cccc(C(F)(F)F)c3)cccc21 (stereo unspecified) | 5.11 µM | 2.21 | 
C#CCN[C@@H]1CCc2ccccc21 [RASAGILINE] |  |  | Activity (SH-SY5Y [3]): Non-Toxic; Activity (BV-2 [4]): Non-Toxic; Activity (BV-2 [5]): 30%; Activity (SH-SY5Y [6]): 30%; Activity (BV-2 [7]): Active; Activity (SH-SY5Y [8]): Active; Activity (Mus musculus [9]): Active; Activity (Mus musculus [10]): Active; Activity (Mus musculus [11]): Active

More lines, main results first:

IC50 [1] | Ratio IC50 [2] | SMILES | further results
3.24 µM |  | C#CCNC1CCc2c(SCCc3ccc(F)c(F)c3)cccc21 (stereo unspecified) | 
25.8 µM | 0.18 | C#CCNC1CCc2c(SCCc3ccc(C)cc3)cccc21 (stereo unspecified) | 
16.1 µM | 0.54 | C#CCNC1CCc2c(SCCc3ccc(C(F)(F)F)cc3)cccc21 (stereo unspecified) | 
82.4 µM |  | C#CCNC1CCc2c(SCCc3cccc(Cl)c3)cccc21 (stereo unspecified) | 
10.8 µM | 0.085 | C#CCNC1CCc2c(SCCc3ccc(Cl)cc3)cccc21 (stereo unspecified) | 
1.56 µM | 0.2 | C#CCNC1CCc2c(SCc3ccc(C)cc3)cccc21 (stereo unspecified) | 
62 µM | 13.5 | C#CCNC1CCc2c(SCCc3ccc(OC)cc3)cccc21 (stereo unspecified) | 
3.85 µM | 0.73 | C#CCNC1CCc2c(SCCc3ccc(Cl)c(Cl)c3)cccc21 (stereo unspecified) | 
> 100 µM |  | C#CCNC1CCc2c(SCc3cccc(C)c3)cccc21 (stereo unspecified) | 
1.31 µM | 0.37 | C#CCNC1CCc2c(SCc3ccc(Br)cc3)cccc21 (stereo unspecified) | 
85.3 µM | 0.015 | C#CCNC1CCc2c(SCCc3ccc(Br)cc3)cccc21 (stereo unspecified) | 
30.5 µM | 0.02 | C#CCNC1CCc2c(SCCc3cccc(Br)c3)cccc21 (stereo unspecified) | 
0.00035 µM | 14200 | C#CCNC1CCc2c(SCCc3cccc(C)c3)cccc21 (stereo unspecified) | Activity (SH-SY5Y [3]): Non-Toxic; Activity (BV-2 [4]): Non-Toxic; Activity (BV-2 [5]): 30%; Activity (SH-SY5Y [6]): 30%; Activity (BV-2 [7]): Active; Activity (SH-SY5Y [8]): Active; Activity (Mus musculus [9]): Active; Activity (Mus musculus [10]): Active; Activity (Mus musculus [11]): Active
4.3 µM | 1.82 | C#CCNC1CCc2c(SCCc3cccc(F)c3)cccc21 (stereo unspecified) | 
28.7 µM | 0.13 | C#CCNC1CCc2c(SCCc3cccc(OC)c3)cccc21 (stereo unspecified) | 
